Data: US8541670B2, “Compositions and methods for inhibiting tumor cell growth” (priority 2007, dated 2013)
Where no end group is shown, it is not given here. red fluorescent dye = not defined here

Tests used:
Abl = Abl (Homo sapiens, UniProt P00519); assay: In vitro kinase assay Abl; assay type: biochemical; details: ten times higher concentration than 0.1 μM
Description: As a specific substrate, the phosphorylation level of GSK-3[…] at Ser-9 was also evaluated. […] The decrease was specific to the AKT phosphorylation site on GSK-3[…] at Ser-9, since a change in the phosphorylation level of GSK-3[…] at Tyr-216 or GSK-3[…] at Tyr-279 was not observed. Moreover, the in vivo reduction of the phosphorylation of AKT substrates was more obvious at the injection site, since a significant change in the phosphorylation of AKT substrates in the frontal cortex or cerebellum between the two hemispheres was not observed. […] To test the specificity/selectivity of ZaTa as the inhibitor of AKT1 versus the other major kinases, a series of in vitro kinase assays was performed at IC50 for AKT1 and at ten times higher concentrations. A panel of the following 32 kinases was first tested in vitro using the active form of each kinase and a specific substrate: AKT2, AKT3, PKA, PKC[…], PKC, PI3K[…], PI3K[…], PI3K, SGK, PAK2, PAK3, SAPK2/p38, Abl, CaMKII, CDK1/cyclinB, CDK5/p35, CK1, CK2, CSK, GSK3[…], GSK3[…], JNK1[…]1, MAPK1, p70S6K, PDGFR[…], PDGFR[…], PDK1, PKG1[…], TrkB, JAK2, JAK3, and Syk. […] However, at ten times higher concentration, ZaTa inhibited AKT2 (63%), PI3K[…] (72%), p70S6K (64%), SGK (73%), PAK3 (83%), JAK3 (79%), TrkB (84%), and Abl (42%). […]

AKT = assay: In vivo AKT inhibition in brain after stereotactic injection (immunofluorescence, western blot); design: species or system mouse
Description: As a specific substrate, the phosphorylation level of GSK-3[…] at Ser-9 was also evaluated. […] The decrease was specific to the AKT phosphorylation site on GSK-3[…] at Ser-9, since a change in the phosphorylation level of GSK-3[…] at Tyr-216 or GSK-3[…] at Tyr-279 was not observed. Moreover, the in vivo reduction of the phosphorylation of AKT substrates was more obvious at the injection site, since a significant change in the phosphorylation of AKT substrates in the frontal cortex or cerebellum between the two hemispheres was not observed. […] To test the specificity/selectivity of ZaTa as the inhibitor of AKT1 versus the other major kinases, a series of in vitro kinase assays was performed at IC50 for AKT1 and at ten times higher concentrations. A panel of the following 32 kinases was first tested in vitro using the active form of each kinase and a specific substrate: AKT2, AKT3, PKA, PKC[…], PKC, PI3K[…], PI3K[…], PI3K, SGK, PAK2, PAK3, SAPK2/p38, Abl, CaMKII, CDK1/cyclinB, CDK5/p35, CK1, CK2, CSK, GSK3[…], GSK3[…], JNK1[…]1, MAPK1, p70S6K, PDGFR[…], PDGFR[…], PDK1, PKG1[…], TrkB, JAK2, JAK3, and Syk. […] However, at ten times higher concentration, ZaTa inhibited AKT2 (63%), PI3K[…] (72%), p70S6K (64%), SGK (73%), PAK3 (83%), JAK3 (79%), TrkB (84%), and Abl (42%). To confirm the in vitro inhibitory effect on these kinases in cells, a cell-based assay was used to determine the effect of labeled ZaTa on the phosphorylation levels of well-known intracellular substrates for each kinase (Zipfel, et al. (2004) Curr. Biol. 14:1222-1231; Wang, et al. (2003) Arch. Biochem. Biophys. 410:7-15; King, et al. (1998) Nature 396:180-183; Rangone, et al. (2004) Eur. J. Neurosci. 19:273-279; Middlemas, et al. (1994) J. Biol. Chem. 269:5458-5466; Huang, et al. (1999) J. Biol. Chem. 274:7870-7878). […] Given that most of the above-listed kinases have no known inhibitor, it is contemplated that the ZaTa could be used at micromolar concentrations in in vitro studies to inhibit the activity of the select kinases.
These different localization patterns of ZaTa within the cell were usually accompanied with redistribution of AKT to the site of ZaTa.
N2a cells were cultured in Dulbecco's Modified Eagle's Medium (DMEM) and OPTI-MEM® media (50% of each; GIBCO-BRL, Gaithersberg, Md.) supplemented with 5% fetal bovine serum (FBS; SIGMA, St. Louis, Mo.), penicillin-streptomycin and L-Glutamine (GIBCO-BRL). Cells (˜1×10^6) or frontal cortex of mouse brain (0.05-0.1 gram) were homogenized in ice cold lysate buffer (0.25 M Tris, pH 7.5) containing protease inhibitors (Protease Inhibitor Cocktail tablets; Boehringer Mannheim, Mannheim, Germany) and phosphatase inhibitors (Phosphatase Inhibitor Cocktails I & II; SIGMA) and lysed through three cycles of freezing in liquid nitrogen and thawing in a 37° C. water bath. Protein concentration was measured using a commercially available protein assay (BIO-RAD, […].) protein assay and spectrometry at […]. Equal amounts of total protein were loaded on 4-12% gradient Bis-Tris gels, separated using the NUPAGE® system (INVITROGEN, Carlsbad, Calif.) and transferred onto nitrocellulose membrane. The membrane was probed with primary and secondary antibodies and signals were detected by chemiluminescence followed by autoradiography.
For immunofluorescence analysis of mouse brain, anaesthetized mice were perfused with PBS-buffered formalin, fixed overnight, placed in PBS, and stored at 4° C. VIBRATOME® sections, 50-μm thick, were cut in the coronal plane from the fronto-striatum brain region. […] The sections were blocked overnight using 2% normal goat sera in PBS with 0.3% TRITON™ X-100 and then incubated for 48 hours in blocking solution with 1:500 dilution of anti-phospho-AKT substrate antibody. Sections were washed four times for 15 minutes in PBS, incubated with blocking solution containing goat anti-rabbit ALEXA®-568 secondary antibody (MOLECULAR PROBES, Eugene, Oreg.) for 48 hours, and washed four times for 15 minutes in PBS. […]

[1] = tested on: non-proliferating neurons in primary cortical culture; assay: TUNEL assay in primary cortical neuron culture; assay type: cell-based; details: 1 or 5 µM, 72-hour treatment, compared to control peptide
Description: It is now well-established that AKT protects against apoptosis through phosphorylation and inhibition of pro-apoptotic mediators such as BAD, FOXO family members and IKK-[…] (Datta, et al. (1999) Genes Dev. 13:2905-2927). […] Primary neurons were treated with DMSO, 1 µM or 5 µM of either ZaTa or the control peptide for a duration of 1, 3, 16, 24, 48 or 72 hours. The number of apoptotic cells was counted following the TUNEL assay. […] The increase in the number of apoptotic neurons following treatment with ZaTa was consistent with its potent intra-neuronal inhibition of AKT.

Chain of Abl (P00519 whole entry, species assumed): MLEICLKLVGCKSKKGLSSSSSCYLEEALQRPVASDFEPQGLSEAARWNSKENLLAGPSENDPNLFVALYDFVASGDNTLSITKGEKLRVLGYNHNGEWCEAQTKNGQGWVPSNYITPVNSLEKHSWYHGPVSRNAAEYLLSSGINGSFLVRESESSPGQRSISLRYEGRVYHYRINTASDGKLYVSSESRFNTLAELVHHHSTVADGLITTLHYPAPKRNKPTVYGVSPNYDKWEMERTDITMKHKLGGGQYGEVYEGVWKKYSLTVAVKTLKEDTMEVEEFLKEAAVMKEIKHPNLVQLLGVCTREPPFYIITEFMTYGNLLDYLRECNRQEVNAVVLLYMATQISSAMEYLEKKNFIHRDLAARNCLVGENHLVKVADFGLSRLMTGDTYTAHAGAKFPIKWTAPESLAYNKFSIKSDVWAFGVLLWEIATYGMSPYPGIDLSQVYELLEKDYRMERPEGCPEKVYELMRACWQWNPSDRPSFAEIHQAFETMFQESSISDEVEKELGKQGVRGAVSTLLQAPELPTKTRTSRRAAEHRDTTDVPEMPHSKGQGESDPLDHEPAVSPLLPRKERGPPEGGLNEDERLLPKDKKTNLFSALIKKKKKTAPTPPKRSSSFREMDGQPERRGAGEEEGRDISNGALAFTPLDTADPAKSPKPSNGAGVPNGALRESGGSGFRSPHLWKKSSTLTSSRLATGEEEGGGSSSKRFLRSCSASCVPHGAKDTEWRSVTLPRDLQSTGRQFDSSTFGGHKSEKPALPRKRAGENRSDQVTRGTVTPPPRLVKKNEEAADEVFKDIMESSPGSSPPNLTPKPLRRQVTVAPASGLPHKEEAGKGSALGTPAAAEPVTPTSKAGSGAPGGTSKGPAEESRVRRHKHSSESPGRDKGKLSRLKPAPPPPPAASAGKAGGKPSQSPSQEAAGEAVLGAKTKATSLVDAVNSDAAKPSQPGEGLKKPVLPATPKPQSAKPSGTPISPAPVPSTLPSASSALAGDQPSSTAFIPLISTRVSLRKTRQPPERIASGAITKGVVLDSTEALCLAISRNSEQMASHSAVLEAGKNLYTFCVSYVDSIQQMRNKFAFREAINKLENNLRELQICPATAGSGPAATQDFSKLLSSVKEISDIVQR

| Substance | inhibition of Abl (Abl) | change in phosphorylation of AKT substrates in frontal cortex or cerebellum (AKT; away from striatal injection site, between hemispheres) | phosphorylation level of AKT substrates in vivo, western blot (AKT; one hour after stereotactic injection) | phosphorylation level of AKT substrates in striatum, immunofluorescence (AKT; stereotactic injection, versus DMSO-injected hemisphere) | change in phosphorylation level of GSK-3[…] at Tyr-216 or Tyr-279 (AKT; striatum) | phosphorylation level of GSK-3[…] at Ser-9 (AKT; striatum, versus DMSO-injected hemisphere) | number of TUNEL-positive cells [1] | phosphorylation level of AKT substrates in ZaTa-positive cells (AKT; stereotactic injection into frontal cortex) |
| --- | --- | --- | --- | --- | --- | --- | --- | --- |
| AKRVKGRTWTLCGTPEY [ZaTa] | 42% | not observed | significant decrease | decrease in the phosphorylation level of AKT substrates | not observed | specific reduction | marked dose-dependent increase |  |
| labeled ZaTa: ZaTa peptide labeled with a red fluorescent dye at its N-terminus ({red fluorescent dye}-AKRVKGRTWTLCGTPEY; reading uncertain) |  |  |  |  |  |  |  | specific reduction in phosphorylation level of AKT substrates |
